Measurements from paper PMC9977398, “Next-generation membrane-active glycopeptide antibiotics that also inhibit bacterial cell division” (Chemical Science, 2023).
In brackets after ≈: the same amount, converted by molar mass. Where two headings read alike, the source gives them in different places.

Assays:
human erythrocytes = assay: Haemolysis assay; assay type: cell-based
Method: To select the lead compounds, the toxicity of 1–10 was tested against human erythrocytes as their hemolytic activity (HC50). The HC50 is determined as the concentration at which 50% of the compound treated cells are lysed. […] The HC50 for compounds 6–8 was also greater than 500 μM. […] Based on the in vitro activity and hemolysis studies, VanQbiph (4) from the aryl-substituted compounds and VanQAmC10 (8) from the alkyl-chain substituted compounds were selected for further investigations. […] VanQAmC10 (8) was additionally non-toxic to RAW 264.7 cells up to 40 μM and was therefore taken forward in vivo investigation.[18]
50 μL of serially diluted compound was added into 96 well microtiter plates. Freshly drawn, heparanized human blood was centrifuged down to obtain the erythrocytes and re-suspended to 5 vol % in PBS (pH 7.4). 150 μL of the erythrocyte suspension was added to the serially diluted compounds (from 500 µM to 2 µM). One set without compound and other with 50 μL of 1 vol % solution of Triton X-100 were kept as controls. The plates were incubated at 37 °C for 1 h followed by centrifugation at 3,500 rpm for 5 min. 100 μL of the supernatant from each well were transferred into fresh microtiter plates, and A540 was measured.
% haemolysis = (A - A0)/(Atotal -A0) × 100, where A is the absorbance of the test well, A 0 the absorbance of the negative controls (without compound), and A total the absorbance of 100 % hemolysis wells (with Triton X -100), all at 540 nm. […]

[1] = test system: VRE 51575 (vancomycin-resistant E. faecalis, VanB phenotype, ATCC 51575); assay: MIC determination, micro-dilution broth; assay type: cell-based; conditions: Enterococcus; read-out: Minimum inhibitory concentration, VRE 51575
Method: (§1) The increase in the carbon content of substituted moieties from six (1) to seven (2 and 3) to ten (5) to twelve (4), increased activity. […]
(§2) Test compound was assayed in a micro -dilution broth format as per the CLSI guideline. The bacterial freeze dried stock samples were stored at -80 °C. About 5 μL of these stocks were added to 3 mL of the respective broth and the culture was grown for 6 h at 37°C with prior to the experiments. This 6 h grown culture was diluted to give effective cell concentration of 10 5 CFU/mL which was then used for determining MIC. Compounds were serially diluted 2 -fold, in sterile millipore water and 50 μL of these serial dilutions were added to the wells of 96 well plate followed by the addition of about 150 μL of bacterial solution. The plates were then incubated for 18-24 h at 37 °C. The O.D. value at 600 nm was recorded using TECAN (Infinite series, M200 pro) Plate Reade r. Each concentration had triplicate values and the whole experiment was done at least twice and the MIC value was determined by taking the average of triplicate O. D. values for each concentration and plotting it against concentration. The data was then subjected to sigmoidal fitting. From the curve the MIC value was determined, as the point where the O. D. was similar to that of control having no bacteria.

[2] = test system: PA R590 (MDR strain of P. aeruginosa); assay: MIC determination, micro-dilution broth; assay type: cell-based; conditions: Pseudomonas aeruginosa; read-out: Minimum inhibitory concentration, PA R590
Method: as §1, §2

[3] = test system: VRE 51559 (vancomycin-resistant E. faecium, VanA phenotype, ATCC 51559); assay: MIC determination, micro-dilution broth; assay type: cell-based; conditions: Enterococcus; read-out: Minimum inhibitory concentration, VRE 51559
Method: as §1, §2

[4] = test system: VRSA 1 (vancomycin-resistant S. aureus); assay: MIC determination, micro-dilution broth; assay type: cell-based; conditions: Staphylococcus aureus, read-out: Minimum inhibitory concentration, VRSA 1
Method: as §1, §2

AB R674 (A. baumannii) = assay: MIC determination, micro-dilution broth; assay type: cell-based; conditions: Acinetobacter baumannii; read-out: Minimum inhibitory concentration, AB R674
Method: as §1, §2

[5] = test system: VRSA 12 (vancomycin-resistant S. aureus); assay: MIC determination, micro-dilution broth; assay type: cell-based; conditions: Staphylococcus aureus, read-out: Minimum inhibitory concentration, VRSA 12
Method: as §1, §2

[6] = test system: MRSA, methicillin-resistant S. aureus (ATCC 33591); assay: MIC determination, micro-dilution broth; assay type: cell-based; conditions: Staphylococcus aureus; MRSA ATCC 33591; read-out: Minimum inhibitory concentration, MRSA
Method: as §1, §2

[7] = test system: AB 1425 (A. baumannii MTCC 1425); assay: MIC determination, micro-dilution broth; assay type: cell-based; conditions: Acinetobacter baumannii, MTCC1425; read-out: Minimum inhibitory concentration, AB 1425
Method: as §1, §2

[8] = test system: VRSA 4 (vancomycin-resistant S. aureus); assay: MIC determination, micro-dilution broth; assay type: cell-based; conditions: Staphylococcus aureus, read-out: Minimum inhibitory concentration, VRSA 4
Method: as §1, §2

VRE (VanA phenotype) = test system: VRE (VanA phenotype); design: method as in PMID 27663982, PMID 24846441, PMID 14972384; conditions: cited from earlier work

| Compound | HC50 (human erythrocytes; human, 1 h, pH 7.4) | MIC [1] | MIC [2] | MIC [3] | MIC [4] | MIC (AB R674 (A. baumannii)) | MIC [5] | MIC [6] | MIC [7] | MIC [8] | MIC against VRE (VanA phenotype) (VRE (VanA phenotype)) | HC50 (human erythrocytes) |
| --- | --- | --- | --- | --- | --- | --- | --- | --- | --- | --- | --- | --- |
| CNC(CC(C)C)C(=O)NC1C(=O)NC(CC(N)=O)C(=O)NC2C(=O)NC3C(=O)NC(C(=O)NC(C(=O)NCCC[N+](C)(C)Cc4ccc(C)cc4)c4cc(O)cc(O)c4-c4cc3ccc4O)C(O)c3ccc(c(Cl)c3)Oc3cc2cc(c3OC2OC(CO)C(O)C(O)C2OC2CC(C)(N)C(O)C(C)O2)Oc2ccc(cc2Cl)C1O (stereo not shown) [VanQtol (2)] | >500 µM | > 30 µM | > 30 µM | > 30 µM | > 30 µM | 25.3 µM | > 30 µM | 1 µM | > 30 µM | 16 µM | – | – |
| CN[C@H](CC(C)C)C(=O)N[C@H]1C(=O)N[C@@H](CC(N)=O)C(=O)N[C@H]2C(=O)N[C@H]3C(=O)N[C@H](C(=O)N[C@H](C(=O)O)c4cc(O)cc(O)c4-c4cc3ccc4O)[C@H](O[C@H]3C[C@](C)(N)[C@@H](O)[C@H](C)O3)c3ccc(c(Cl)c3)Oc3cc2cc(c3O[C@@H]2O[C@H](CO)[C@@H](O)[C@H](O)[C@H]2O[C@H]2C[C@](C)(NCc3ccc(-c4ccc(Cl)cc4)cc3)[C@@H](O)[C@H](C)O2)Oc2ccc(cc2Cl)[C@H]1O [oritavancin] | – | – | – | – | – | – | – | – | – | – | 0.14 µM (≈ 0.251 µg/mL) | – |
| CN[C@H]1C(=O)N[C@@H]2Cc3ccc(cc3)Oc3cc4cc(c3O[C@@H]3O[C@H](C(=O)O)[C@@H](O)[C@H](O)[C@H]3NC(=O)CCCCCCCCC(C)C)Oc3ccc(cc3Cl)[C@@H](O)[C@@H]3NC(=O)[C@H](NC(=O)[C@@H]4NC(=O)[C@@H](NC2=O)c2cc(cc(O)c2Cl)Oc2cc1ccc2O)c1ccc(O)c(c1)-c1c(O[C@H]2O[C@H](CO)[C@@H](O)[C@H](O)[C@@H]2O)cc(O)cc1[C@@H](C(=O)NCCCN(C)C)NC3=O [dalbavancin] | – | – | – | – | – | – | – | – | – | – | 18 µM (≈ 32.7 µg/mL) | – |
| CNC(CC(C)C)C(=O)NC1C(=O)NC(CC(N)=O)C(=O)NC2C(=O)NC3C(=O)NC(C(=O)NC(C(=O)NCCC[N+](C)(C)Cc4cccc5ccccc45)c4cc(O)cc(O)c4-c4cc3ccc4O)C(O)c3ccc(c(Cl)c3)Oc3cc2cc(c3OC2OC(CO)C(O)C(O)C2OC2CC(C)(N)C(O)C(C)O2)Oc2ccc(cc2Cl)C1O (stereo not shown) [VanQnaph (5)] | >500 µM | 25 µM | > 30 µM | 25 µM | > 30 µM | 24.8 µM | > 30 µM | 1 µM | > 30 µM | 3.9 µM | – | – |
| CCCCCCCCCCCCNC(=O)C[N+](C)(C)CCCNC(=O)C1NC(=O)C2NC(=O)C(NC(=O)C3NC(=O)C(CC(N)=O)NC(=O)C(NC(=O)C(CC(C)C)NC)C(O)c4ccc(c(Cl)c4)Oc4cc3cc(c4OC3OC(CO)C(O)C(O)C3OC3CC(C)(N)C(O)C(C)O3)Oc3ccc(cc3Cl)C2O)c2ccc(O)c(c2)-c2c(O)cc(O)cc21 (stereo not shown) [VanQAmC12 (9)] | 350 µM | 3.1 µM | 6.3 µM | 1.5 µM | 1.5 µM | 6.3 µM | 3 µM | 3.12 µM | 6.3 µM | 0.7 µM | – | caused hemolysis |
| CCCCCCCCCCNCCN[C@@]1(C)C[C@H](O[C@H]2[C@H](Oc3c4cc5cc3Oc3ccc(cc3Cl)[C@@H](O)[C@@H](NC(=O)[C@@H](CC(C)C)NC)C(=O)N[C@@H](CC(N)=O)C(=O)N[C@H]5C(=O)N[C@H]3C(=O)N[C@H](C(=O)N[C@H](C(=O)O)c5cc(O)c(CNCP(=O)(O)O)c(O)c5-c5cc3ccc5O)[C@H](O)c3ccc(c(Cl)c3)O4)O[C@H](CO)[C@@H](O)[C@@H]2O)O[C@@H](C)[C@H]1O [telavancin] | – | – | – | – | – | – | – | – | – | – | 4 µM (≈ 7.02 µg/mL) | – |
| CCCCCCCCNC(=O)C[N+](C)(C)CCCNC(=O)C1NC(=O)C2NC(=O)C(NC(=O)C3NC(=O)C(CC(N)=O)NC(=O)C(NC(=O)C(CC(C)C)NC)C(O)c4ccc(c(Cl)c4)Oc4cc3cc(c4OC3OC(CO)C(O)C(O)C3OC3CC(C)(N)C(O)C(C)O3)Oc3ccc(cc3Cl)C2O)c2ccc(O)c(c2)-c2c(O)cc(O)cc21 (stereo not shown) [VanQAmC8 (7)] | >500 µM | 25 µM | 6.3 µM | 12.5 µM | 3.1 µM | 12.5 µM | > 30 µM | 0.8 µM | 12.5 µM | 3.1 µM | – | – |
| CCCCCCCCCCCCCCNC(=O)C[N+](C)(C)CCCNC(=O)C1NC(=O)C2NC(=O)C(NC(=O)C3NC(=O)C(CC(N)=O)NC(=O)C(NC(=O)C(CC(C)C)NC)C(O)c4ccc(c(Cl)c4)Oc4cc3cc(c4OC3OC(CO)C(O)C(O)C3OC3CC(C)(N)C(O)C(C)O3)Oc3ccc(cc3Cl)C2O)c2ccc(O)c(c2)-c2c(O)cc(O)cc21 (stereo not shown) [VanQAmC14 (10)] | 150 µM | 3.1 µM | 6.3 µM | 1.5 µM | 3 µM | 12.5 µM | 3 µM | 6.25 µM | 6.3 µM | 1.5 µM | – | caused hemolysis |
| CCCCCCNC(=O)C[N+](C)(C)CCCNC(=O)C1NC(=O)C2NC(=O)C(NC(=O)C3NC(=O)C(CC(N)=O)NC(=O)C(NC(=O)C(CC(C)C)NC)C(O)c4ccc(c(Cl)c4)Oc4cc3cc(c4OC3OC(CO)C(O)C(O)C3OC3CC(C)(N)C(O)C(C)O3)Oc3ccc(cc3Cl)C2O)c2ccc(O)c(c2)-c2c(O)cc(O)cc21 (stereo not shown) [VanQAmC6 (6)] | >500 µM | > 30 µM | 12.5 µM | 25 µM | > 30 µM | 12.5 µM | > 30 µM | 0.8 µM | 25 µM | 6.3 µM | – | – |
| CNC(CC(C)C)C(=O)NC1C(=O)NC(CC(N)=O)C(=O)NC2C(=O)NC3C(=O)NC(C(=O)NC(C(=O)NCCC[N+](C)(C)Cc4ccc(C(F)(F)F)cc4)c4cc(O)cc(O)c4-c4cc3ccc4O)C(O)c3ccc(c(Cl)c3)Oc3cc2cc(c3OC2OC(CO)C(O)C(O)C2OC2CC(C)(N)C(O)C(C)O2)Oc2ccc(cc2Cl)C1O (stereo not shown) [VanQphCF3 (3)] | >500 µM | > 30 µM | 24.6 µM | > 30 µM | > 30 µM | 24.6 µM | > 30 µM | 1 µM | > 30 µM | 15.8 µM | – | – |
| CNC(CC(C)C)C(=O)NC1C(=O)NC(CC(N)=O)C(=O)NC2C(=O)NC3C(=O)NC(C(=O)NC(C(=O)NCCC[N+](C)(C)Cc4ccccc4)c4cc(O)cc(O)c4-c4cc3ccc4O)C(O)c3ccc(c(Cl)c3)Oc3cc2cc(c3OC2OC(CO)C(O)C(O)C2OC2CC(C)(N)C(O)C(C)O2)Oc2ccc(cc2Cl)C1O (stereo not shown) [VanQph (1)] | >500 µM | > 30 µM | > 30 µM | > 30 µM | > 30 µM | 25.5 µM | > 30 µM | 1 µM | > 30 µM | > 30 µM | – | – |
